{"source": "patent US9474759B2", "about": "(priority 2011, dated 2016)", "key": {"[1]": {"molecular_target": "Norwalk virus 3CL protease (NV3CL protease), recombinant (Norovirus, UniProt Q83883)", "sequence (Q83883 1101-1281)": "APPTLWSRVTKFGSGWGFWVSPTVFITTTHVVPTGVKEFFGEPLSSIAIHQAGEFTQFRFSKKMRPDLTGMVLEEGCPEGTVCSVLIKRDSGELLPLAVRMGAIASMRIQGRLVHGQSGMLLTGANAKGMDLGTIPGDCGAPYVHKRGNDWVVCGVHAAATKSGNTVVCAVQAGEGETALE", "assay": "Recombinant NV protease FRET inhibition assay (Edans-[…]-Dabcyl substrate), FIG. 4", "assay_type": "biochemical", "settings": "2.5 μM enzyme, 300 nM Edans-EPDFHLQGPEDLAK-Dabcyl, 30 min incubation, 30° C., pH 8.0", "method": "(§1) After a 30 minute incubation period, 5 μL of 12 μM Edans-[…]-Dabcyl (SEQ ID NO:1) substrate in DMSO was then added and the increase in fluorescence was monitored for 30 minutes at an excitation and emission wavelength of 360 and 460 nm, respectively. Using a HORIBA FluoroMax 4 spectrofluorometer. Hydrolysis curves were linear. The final enzyme and substrate concentrations were 2.5 μM and 300 nM, respectively. […] Furthermore, the nature of the cap was also important (compare, for example, inhibitors A and D)."}, "[2]": {"molecular_target": "Norwalk virus 3CL protease (Norovirus, UniProt Q83883)", "sequence (Q83883 1101-1281)": "as above", "assay": "Recombinant NV protease fluorogenic substrate inhibition assay (Example 1)", "assay_type": "biochemical", "settings": "30 min pre-incubation, 30° C., pH 8.0", "method": "as §1"}, "FIPV-1146 [3]": {"test_system": "FIPV-1146", "assay": "Combination treatment of CA074-Me and GC373 on FIPV-1146 replication, MacSynergy II", "assay_type": "cell-based, feline coronavirus", "settings": "CA074-Me alone at 1, FIPV-infected CRFK cells", "method": "The CRFK cells were incubated with GC373 (0.02˜0.2 μM), CA074-Me (0.5˜5 μM), or the combinations of GC373 (0.02˜0.2 μM) and CA074-Me (0.5˜5 μM) for 1 hr at 37° C. prior to inoculation of FIPV-1146 at an MOI of 0.05. After 24 hrs of incubation, virus replication was assessed with virus titration using the TCID50 method. Drug-drug interactions were analyzed by the three-dimensional model of Prichard and Shipman, using the MacSynergy II software at 95% confidence limits. Theoretical additive interactions were calculated from the dose-response curve for each compound individually, and the calculated additive surface was subtracted from the experimentally determined dose-response surface to give regions of synergistic or antagonistic interactions. The resulting surface appears as horizontal plane at 0% of synergy if the interactions of two compounds are additive. Any peak above or below this plane indicates synergy or antagonism, respectively."}, "FECV-1683": {"test_system": "FECV-1683", "assay": "FECV-1683 replication in CRFK cells, TCID50 method", "assay_type": "cell-based, feline coronavirus", "settings": "MOI 0.05, mean ± SEM", "method": "(§2) Crandell Rees feline kidney (CRFK) cells were maintained in minimal essential medium containing 2-5% fetal bovine serum and antibiotics (chlortetracycline [25 μg/ml], penicillin [250 U/ml], and streptomycin [250 μg/ml]). FIPV WSU 79-1146 and FECV WSU 79-1683 strains are the prototypes of serotype II FIPV or FECV, respectively, and were purchased from ATCC (Manassas, Va.).\n(§3) The cells were further incubated in the presence of each compound for 1 hr at 37° C. Then […] or FECV-1683 was inoculated to the cells at a multiplicity of infection (MOI) of 0.05 or 5.\n(§4) b. TCID50 Method. A standard TCID50 method with the 10-fold dilution of each sample was used for virus titration."}, "FIPV-1146 [4]": {"test_system": "FIPV-1146", "assay": "FIPV-1146 replication in CRFK cells, TCID50 method", "assay_type": "cell-based, feline coronavirus", "settings": "MOI 0.05, mean ± SEM", "method": "as §2, §3, §4"}, "[5]": {"test_system": "norovirus (cell-based replicon system)", "assay": "Cell-based replicon system of norovirus (Example 4)"}, "HG23 cells": {"test_system": "HG23 cells", "settings": "human"}, "[6]": {"test_system": "norovirus (NV replicon-harboring HG23 cells)", "assay": "NV replicon-harboring cells (HG23), NV genome levels by qRT-PCR (Example 1)", "assay_type": "cell-based, Norwalk virus", "settings": "read-out: ED50, effective dose that inhibits 50% of norovirus replication, NV genome levels at 24 hrs post-treatment"}, "[7]": {"test_system": "murine norovirus-1 (MNV-1)", "assay": "MNV-1 replication in RAW267.4 cells, TCID50 (Example 1)", "assay_type": "cell-based", "settings": "Norwalk virus, MOI 2, TCID50 assay, read-out: ED50, replication of murine norovirus (MNV)"}, "[8]": {"test_system": "cells used for virus replication", "assay": "Non-specific cytotoxicity in the cells used for virus replication (Example 3)", "assay_type": "cell-based", "method": "Confluent cells grown in 96-well plates were treated with various concentrations (1 to 500 μM) of each compound for 72 h. Cell cytotoxicity was measured by a CytoTox 96® nonradioactive cytotoxicity assay kit (Promega, Madison, Wis.) and crystal violet staining. The In vitro therapeutic index was calculated by dividing the TD50 by the IC50."}, "[9]": {"test_system": "coronavirus proteases (TGEV and SARS-CoV)", "assay_type": "biochemical", "settings": "optimized FRET assay"}, "FCV": {"test_system": "FCV", "assay": "Cell culture system, FCV replication in CRFK cells (Example 3)", "assay_type": "cell-based, feline calicivirus", "settings": "at concentrations up to 50 μM or 100 μM"}, "MNV-1": {"test_system": "MNV-1", "assay": "Cell culture system, MNV-1 replication in RAW267.4 cells (Example 3)", "assay_type": "cell-based, murine norovirus", "settings": "at concentrations up to 50 μM or 100 μM"}, "MHV": {"test_system": "MHV", "assay": "Cell culture system, MHV replication in CCL-9.1 cells (Example 3)", "assay_type": "cell-based, mouse hepatitis virus", "settings": "at concentrations up to 50 μM or 100 μM"}, "[10]": {"settings": "24 hr post infection, read-out: Inhibition [ED50 (μM)] against FECV-1683, 24 hrs"}, "[11]": {"settings": "48 hr post infection, read-out: Inhibition [ED50 (μM)] against FECV-1683, 48 hrs"}, "[12]": {"settings": "24 hr post infection, read-out: Inhibition [ED50 (μM)] against FIPV-1146, 24 hrs"}, "[13]": {"settings": "48 hr post infection, read-out: Inhibition [ED50 (μM)] against FIPV-1146, 48 hrs"}}, "note": "Like-named read-outs stand apart in the source and are kept apart here."}
{"smiles": "CC(C)C[C@H](NC(=O)N1CCOCC1)C(=O)N[C@H](C=O)CC1CCNC1=O", "note": "(stereo partly drawn) [Inhibitor A]", "values": [{"measurement": "IC50", "setting": "[1]", "result": 7.2, "unit": "µM"}]}
{"smiles": "CCCC[C@H](NC(=O)CNC(=O)OCc1ccccc1)C(=O)N[C@H](C=O)CC1CCNC1=O", "note": "(stereo partly drawn) [Inhibitor G]", "values": [{"measurement": "inhibitory activity against Norwalk virus 3CL protease (in words)", "setting": "[2]", "result": "sub-micromolar inhibitor"}, {"measurement": "IC50", "setting": "[1]", "result": 0.87, "unit": "µM"}]}
{"smiles": "CCCNC(=O)[C@H]1O[C@@H]1C(=O)N[C@H](C(=O)N1CCC[C@H]1C(=O)OC)[C@@H](C)CC", "note": "(relative stereo) [CA074-Me, L-3-trans-((propylcarbamyl)oxirane-2-Carbonyl)-L-isoleucyl-L-proline methyl ester, reference compound]", "values": [{"measurement": "reduction of virus titers", "setting": "FIPV-1146 [3]", "result": 0.5, "unit": "log10"}, {"measurement": "EC50", "setting": "FECV-1683; [10]", "result": "4 ± 0.71", "unit": "µM"}, {"measurement": "EC50", "setting": "FECV-1683; [11]", "result": "> 10", "unit": "µM"}, {"measurement": "EC50", "setting": "FIPV-1146 [4]; [12]", "result": "2.5 ± 1.4", "unit": "µM"}, {"measurement": "EC50", "setting": "FIPV-1146 [4]; [13]", "result": "> 10", "unit": "µM"}]}
{"smiles": "CC(C)NC(=O)C(O)[C@H](CC1CCNC1=O)NC(=O)[C@H](Cc1ccccc1)NC(=O)OCc1ccccc1", "note": "(stereo partly drawn) [Inhibitor 5h]", "values": [{"measurement": "anti-norovirus activity in the cell-based replicon system (in words)", "setting": "[5]", "result": "noteworthy activity"}]}
{"smiles": "CCOC(=O)[C@H]1O[C@@H]1C(=O)N[C@@H](CC(C)C)C(=O)NCCC(C)C", "note": "(relative stereo) [Inhibitor E64d, (2S,3S)-trans-epoxysuccinyl-L-leucylamido-3-methylbutane ethyl ester, reference compound]", "values": [{"measurement": "EC50", "setting": "FECV-1683; [10]", "result": "2.3 ± 0.28", "unit": "µM"}, {"measurement": "EC50", "setting": "FECV-1683; [11]", "result": "> 10", "unit": "µM"}, {"measurement": "EC50", "setting": "FIPV-1146 [4]; [12]", "result": "1.45 ± 0.49", "unit": "µM"}, {"measurement": "EC50", "setting": "FIPV-1146 [4]; [13]", "result": "> 10", "unit": "µM"}]}
{"smiles": "CC(C)C[C@H](NC(=O)OCc1ccccc1)C(=O)N[C@@H](CC1CCNC1=O)C(O)c1nccs1", "note": "(stereo partly drawn) [Inhibitor 7b]", "values": [{"measurement": "anti-norovirus activity in the cell-based replicon system (in words)", "setting": "[5]", "result": "noteworthy activity"}]}
{"smiles": "CC(C)C[C@H](NC(=O)OCc1ccccc1)C(=O)N[C@@H](CC1CCNC1=O)C(O)C(=O)NC(C)C", "note": "(stereo partly drawn) [Inhibitor 5a]", "values": [{"measurement": "anti-norovirus activity in the cell-based replicon system (in words)", "setting": "[5]", "result": "noteworthy activity"}]}
{"smiles": "CC(C)C[C@H](NC(=O)CNC(=O)OCc1ccccc1)C(=O)N[C@H](C=O)CC1CCNC1=O", "note": "(stereo partly drawn) [Inhibitor E]", "values": [{"measurement": "TD50, median toxic dose", "setting": "HG23 cells", "result": "> 320", "unit": "µM"}, {"measurement": "inhibitory activity against Norwalk virus 3CL protease (in words)", "setting": "[2]", "result": "improved potency, albeit not dramatically"}, {"measurement": "IC50", "setting": "[1]", "result": 1.45, "unit": "µM"}, {"measurement": "EC50", "setting": "[6]", "result": 7.8, "unit": "µM"}, {"measurement": "EC50", "setting": "[7]", "result": 20.3, "unit": "µM"}]}
{"smiles": "CCC(C)[C@H](NC(=O)CNC(=O)OCc1ccccc1)C(=O)N[C@H](C=O)CC1CCNC1=O", "note": "(stereo partly drawn) [Inhibitor I]", "values": [{"measurement": "inhibitory activity against Norwalk virus 3CL protease (in words)", "setting": "[2]", "result": "detrimental to inhibitory activity"}]}
{"smiles": "CC(C)C[C@H](NC(=O)OCc1ccccc1)C(=O)N[C@@H](CC1CCNC1=O)C(=O)c1ncco1", "note": "(stereo partly drawn) [Inhibitor 8a]", "values": [{"measurement": "EC50", "setting": "[5]; read-out: ED50 in the cell-based replicon system", "result": 0.9, "unit": "µM"}]}
{"smiles": "CCOC(=O)/C=C/[C@H](C[C@@H]1CCNC1=O)NC(=O)[C@@H](CC(=O)[C@@H](NC(=O)c1cc(C)on1)C(C)C)Cc1ccc(F)cc1", "note": "[Rupintrivir]", "values": [{"measurement": "non-specific cytotoxicity: none shown up to this concentration", "setting": "[8]", "result": "> 500", "unit": "µM"}, {"measurement": "activity against the coronavirus proteases compared to GC373 and GC376 (in words)", "setting": "[9]", "result": "substantially less effective"}, {"measurement": "inhibition of replication of FCV (in words)", "setting": "FCV", "result": "did not inhibit the replication"}, {"measurement": "inhibition of replication of MNV-1 (in words)", "setting": "MNV-1", "result": "did not inhibit the replication"}, {"measurement": "inhibition of replication of MHV (in words)", "setting": "MHV", "result": "did not inhibit the replication"}]}
